Data set [1] has as its target T1, ATP-dependent translocase ABCB1 (Homo sapiens, UniProt P08183). As to the kind of experiment: TP_TRANSPORTER: transepithelial transport (basal to apical) in MDR1-expressing MDCKII cells. In kind it is functional, cell-based. Conditions: dog, mdck-ii.
Data set [2] addresses T1, ATP-dependent translocase ABCB1. The experiment in a line: TP_TRANSPORTER: increase in Calcein-AM intracellular accumulation (Calcein-AM: ? uM, Sumatriptan: 100 uM) in MDR1-expressing MDCKII cells. Format: functional, cell-based. Conditions: dog, mdck-ii.
Data set [3] addresses T2, MDR1 (P-glycoprotein, ABCB1) (Homo sapiens, UniProt P08183). As to the kind of experiment: TP_TRANSPORTER: increase in Calcein-AM intracellular accumulation (Calcein-AM: ? uM, Amitriptyline: 100 uM) in MDR1-expressing MDCKII cells. In kind it is functional, cell-based, MDCK-II. To be noted: dog, probe Calcein-AM.
Data set [4] addresses T1, ATP-dependent translocase ABCB1. As to the kind of experiment: TP_TRANSPORTER: increase in Calcein-AM intracellular accumulation (Calcein-AM: ? uM, Biperiden: 100 uM) in MDR1-expressing MDCKII cells. Format: functional, cell-based. Conditions: dog, mdck-ii.
The target in data set [5] is T2, MDR1 (P-glycoprotein, ABCB1). As to the kind of experiment: TP_TRANSPORTER: increase in Calcein-AM intracellular accumulation (Calcein-AM: ? uM, Buspirone: 100 uM) in MDR1-expressing MDCKII cells. Format: functional, cell-based, MDCK-II. Conditions: dog, probe Calcein-AM.
The target of data set [6] is T1, ATP-dependent translocase ABCB1. The experiment in a line: TP_TRANSPORTER: increase in Calcein-AM intracellular accumulation (Calcein-AM: ? uM, Carbamazepine: 100 uM) in MDR1-expressing MDCKII cells. Format: functional, cell-based. Conditions: dog, mdck-ii.
Data set [7] addresses T2, MDR1 (P-glycoprotein, ABCB1). The experiment in a line: TP_TRANSPORTER: increase in Calcein-AM intracellular accumulation (Calcein-AM: ? uM, Chlorprothixene: 100 uM) in MDR1-expressing MDCKII cells. Format: functional, cell-based, MDCK-II. To be noted: dog, probe Calcein-AM.
Data set [8] shares this target. As to the kind of experiment: TP_TRANSPORTER: increase in Calcein-AM intracellular accumulation (Calcein-AM: ? uM, Clomipramine: 100 uM) in MDR1-expressing MDCKII cells. Format: functional, cell-based, MDCK-II. To be noted: dog, probe Calcein-AM.
For data set [9] the target is unchanged. The experiment in a line: TP_TRANSPORTER: increase in Calcein-AM intracellular accumulation (Calcein-AM: ? uM, Desipramine: 100 uM) in MDR1-expressing MDCKII cells. In kind it is functional, cell-based, MDCK-II. To be noted: dog, probe Calcein-AM.
The target is the same in data set [10]. The experiment in a line: TP_TRANSPORTER: increase in Calcein-AM intracellular accumulation (Calcein-AM: ? uM, Doxepin: 100 uM) in MDR1-expressing MDCKII cells. Format: functional, cell-based, MDCK-II. To be noted: dog, probe Calcein-AM.
Data set [11] concerns the target T1, ATP-dependent translocase ABCB1. The experiment in a line: TP_TRANSPORTER: increase in Calcein-AM intracellular accumulation (Calcein-AM: ? uM, Flumazenil: 100 uM) in MDR1-expressing MDCKII cells. In kind it is functional, cell-based. Conditions: dog, mdck-ii.
Data set [12] deals with T2, MDR1 (P-glycoprotein, ABCB1). As to the kind of experiment: TP_TRANSPORTER: increase in Calcein-AM intracellular accumulation (Calcein-AM: ? uM, […]: 100 uM) in MDR1-expressing MDCKII cells. Conditions: dog, probe Calcein-AM. Format: functional, cell-based, MDCK-II.
Data set [13] shares this target. As to the kind of experiment: TP_TRANSPORTER: increase in Calcein-AM intracellular accumulation (Calcein-AM: ? uM, Fluvoxamine: 100 uM) in MDR1-expressing MDCKII cells. In kind it is functional, cell-based, MDCK-II. To be noted: dog, probe Calcein-AM.
For data set [14] the target is unchanged. As to the kind of experiment: TP_TRANSPORTER: increase in Calcein-AM intracellular accumulation (Calcein-AM: ? uM, Haloperidol: 100 uM) in MDR1-expressing MDCKII cells. Format: functional, cell-based, MDCK-II. To be noted: dog, probe Calcein-AM.
The target of data set [15] is T1, ATP-dependent translocase ABCB1. As to the kind of experiment: TP_TRANSPORTER: increase in Calcein-AM intracellular accumulation (Calcein-AM: ? uM, Imipramine: 100 uM) in MDR1-expressing MDCKII cells. In kind it is functional, cell-based. To be noted: dog, mdck-ii.
The target is the same in data set [16]. The experiment in a line: TP_TRANSPORTER: increase in Calcein-AM intracellular accumulation (Calcein-AM: ? uM, Ketamine: 100 uM) in MDR1-expressing MDCKII cells. In kind it is functional, cell-based. Conditions: dog, mdck-ii.
The target in data set [17] is T2, MDR1 (P-glycoprotein, ABCB1). As to the kind of experiment: TP_TRANSPORTER: increase in Calcein-AM intracellular accumulation (Calcein-AM: ? uM, Maprotiline: 100 uM) in MDR1-expressing MDCKII cells. To be noted: dog, probe Calcein-AM.
For data set [18], the target named is T1, ATP-dependent translocase ABCB1. As to the kind of experiment: TP_TRANSPORTER: increase in Calcein-AM intracellular accumulation (Calcein-AM: ? uM, Meprobamate: 100 uM) in MDR1-expressing MDCKII cells. In kind it is functional, cell-based. To be noted: dog, mdck-ii.
In data set [19] the target is T2, MDR1 (P-glycoprotein, ABCB1). The experiment in a line: TP_TRANSPORTER: increase in Calcein-AM intracellular accumulation (Calcein-AM: ? uM, Metergoline: 100 uM) in MDR1-expressing MDCKII cells. To be noted: dog, probe Calcein-AM. In kind it is functional, cell-based, MDCK-II.
The target in data set [20] is T1, ATP-dependent translocase ABCB1. The experiment in a line: TP_TRANSPORTER: increase in Calcein-AM intracellular accumulation (Calcein-AM: ? uM, Naltrexone: 100 uM) in MDR1-expressing MDCKII cells. Format: functional, cell-based. To be noted: dog, mdck-ii.
The target is the same in data set [21]. The experiment in a line: TP_TRANSPORTER: increase in Calcein-AM intracellular accumulation (Calcein-AM: ? uM, Nitrazepam: 100 uM) in MDR1-expressing MDCKII cells. Format: functional, cell-based. To be noted: dog, mdck-ii.
The target is the same in data set [22]. As to the kind of experiment: TP_TRANSPORTER: increase in Calcein-AM intracellular accumulation (Calcein-AM: ? uM, Nordazepam: 100 uM) in MDR1-expressing MDCKII cells. Format: functional, cell-based. Conditions: dog, mdck-ii.
Data set [23] shares this target. As to the kind of experiment: TP_TRANSPORTER: increase in Calcein-AM intracellular accumulation (Calcein-AM: ? uM, Selegiline: 100 uM) in MDR1-expressing MDCKII cells. In kind it is functional, cell-based. Conditions: dog, mdck-ii.
The target is the same in data set [24]. As to the kind of experiment: TP_TRANSPORTER: increase in Calcein-AM intracellular accumulation (Calcein-AM: ? uM, Zimeldine: 100 uM) in MDR1-expressing MDCKII cells. In kind it is functional, cell-based. Conditions: dog, mdck-ii.

Results on 27 molecules are retold here after ChEMBL document CHEMBL2074178, “Passive permeability and P-glycoprotein-mediated efflux differentiate central nervous system (CNS) and non-CNS marketed drugs” (J Pharmacol Exp Ther, 2002).

T2 sequence (P08183 whole entry): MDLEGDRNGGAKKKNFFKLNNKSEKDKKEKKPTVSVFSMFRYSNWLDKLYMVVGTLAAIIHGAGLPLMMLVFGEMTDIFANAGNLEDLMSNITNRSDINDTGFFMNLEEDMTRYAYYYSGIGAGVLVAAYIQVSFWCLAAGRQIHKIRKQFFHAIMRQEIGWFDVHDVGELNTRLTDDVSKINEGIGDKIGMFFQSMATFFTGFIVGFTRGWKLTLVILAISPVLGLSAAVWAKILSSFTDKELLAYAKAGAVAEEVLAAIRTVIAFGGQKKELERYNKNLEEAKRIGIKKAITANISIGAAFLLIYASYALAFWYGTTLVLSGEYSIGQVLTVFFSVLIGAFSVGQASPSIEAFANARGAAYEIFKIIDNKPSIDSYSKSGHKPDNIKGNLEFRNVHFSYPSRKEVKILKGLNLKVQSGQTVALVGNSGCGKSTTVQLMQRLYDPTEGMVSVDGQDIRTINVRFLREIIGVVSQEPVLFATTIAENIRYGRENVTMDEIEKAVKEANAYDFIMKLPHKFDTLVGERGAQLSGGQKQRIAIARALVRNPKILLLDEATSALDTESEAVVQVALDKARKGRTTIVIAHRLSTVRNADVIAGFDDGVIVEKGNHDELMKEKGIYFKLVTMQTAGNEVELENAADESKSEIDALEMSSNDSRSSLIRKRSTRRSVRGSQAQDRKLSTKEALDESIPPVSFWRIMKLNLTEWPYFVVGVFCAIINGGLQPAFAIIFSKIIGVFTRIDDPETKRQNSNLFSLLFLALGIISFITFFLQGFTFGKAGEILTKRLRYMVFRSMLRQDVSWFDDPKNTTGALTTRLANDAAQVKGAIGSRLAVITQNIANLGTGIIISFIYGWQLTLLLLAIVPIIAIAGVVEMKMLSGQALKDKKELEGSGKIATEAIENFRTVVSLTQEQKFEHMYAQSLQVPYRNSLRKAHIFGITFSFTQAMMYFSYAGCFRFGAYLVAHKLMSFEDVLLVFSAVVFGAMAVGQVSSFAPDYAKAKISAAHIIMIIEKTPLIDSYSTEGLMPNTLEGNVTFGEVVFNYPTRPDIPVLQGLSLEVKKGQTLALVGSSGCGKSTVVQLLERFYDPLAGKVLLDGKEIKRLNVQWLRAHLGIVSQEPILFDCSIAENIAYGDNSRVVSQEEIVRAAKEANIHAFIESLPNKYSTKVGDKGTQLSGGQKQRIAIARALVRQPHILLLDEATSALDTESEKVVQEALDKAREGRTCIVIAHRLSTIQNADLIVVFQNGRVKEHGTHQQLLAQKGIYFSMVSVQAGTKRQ
T1 sequence (P08183 whole entry): as above

As for `CNS(=O)(=O)Cc1ccc2[nH]cc(CCN(C)C)c2c1`, the figures for the Activity result in data set [1] and in data set [2] were “is not a substrate [-]” and “is not an inhibitor [-]”, respectively.
As usually defined, the inhibition is the share of the control response that was lost under treatment. With `CN(C)CCC=C1c2ccccc2CCc2ccccc21` [AMITRIPTYLINE], the Activity entry in [1] was “is not a substrate [-]”. In [3], the inhibition at 100 µM was 25.5%.
As to `OC(CCN1CCCCC1)(c1ccccc1)C1CC2C=CC1C2` (stereo not given) [BIPERIDEN], the figures for the Activity result in data set [1] and in [4] were “is not a substrate [-]” and “is not an inhibitor [-]”, respectively.
Turning to `CC(C)C[C@H]1C(=O)N2CCC[C@H]2[C@]2(O)O[C@](NC(=O)[C@@H]3C=C4c5cccc6[nH]c(Br)c(c56)C[C@H]4N(C)C3)(C(C)C)C(=O)N12` [BROMOCRIPTINE], in data set [1], the Activity result is “is not a substrate [-]”.
Regarding `O=C1CC2(CCCC2)CC(=O)N1CCCCN1CCN(c2ncccn2)CC1` [BUSPIRONE], in data set [1], the Activity result is “is not a substrate [-]”. Also, the inhibition at 100 µM in data set [5] was 24.1%.
For `NC(=O)N1c2ccccc2C=Cc2ccccc21` [CARBAMAZEPINE], the Activity entry was “is not a substrate [-]” in [1] and “is not an inhibitor [-]” in [6].
In the case of `CN(C)CC/C=C1/c2ccccc2Sc2ccc(Cl)cc21` [CHLORPROTHIXENE], in data set [1], the Activity result was “is not a substrate [-]”. For the same molecule, in data set [7], the inhibition at 100 µM is 57.5%.
As for `CN(C)CCCN1c2ccccc2CCc2ccc(Cl)cc21` [CLOMIPRAMINE], the Activity entry in data set [1] is “is not a substrate [-]”. The inhibition at 100 µM in [8] is 48.2%.
As to `CNCCCN1c2ccccc2CCc2ccccc21` [DESIPRAMINE], in data set [1], the Activity result was “is not a substrate [-]”. For the same molecule, the inhibition at 100 µM in data set [9] is 12.8%.
In the case of `CN(C)CCC=C1c2ccccc2COc2ccccc21` [DOXEPIN], in [1], the Activity entry was “is not a substrate [-]”. In addition, the inhibition at 100 µM in [10] was 15.3%.
On to `CCOC(=O)c1ncn2c1CN(C)C(=O)c1cc(F)ccc1-2` [FLUMAZENIL], for which the Activity entry in data set [11] is “is not an inhibitor [-]”; in [1], “is not a substrate [-]”.
Consider `CCN(CC)CCN1C(=O)CN=C(c2ccccc2F)c2cc(Cl)ccc21` [FLURAZEPAM], for which, in [1], the Activity entry was “is not a substrate [-]”. In addition, in data set [12], the inhibition at 100 µM was 22.6%.
Turning to `COCCCC/C(=N\OCCN)c1ccc(C(F)(F)F)cc1` [FLUVOXAMINE], in data set [1], the Activity entry was “is not a substrate [-]”. Further, in data set [13], the inhibition at 100 µM is 20.8%.
Take `O=C(CCCN1CCC(O)(c2ccc(Cl)cc2)CC1)c1ccc(F)cc1` [HALOPERIDOL]: in data set [14], the inhibition at 100 µM is 37.2%. For the same molecule, the Activity result in data set [1] is “is not a substrate [-]”.
Turning to `CN(C)CCCN1c2ccccc2CCc2ccccc21` [IMIPRAMINE], the Activity entry is “is not a substrate [-]” in data set [1] and “is not an inhibitor [-]” in data set [15].
With `CNC1(c2ccccc2Cl)CCCCC1=O` (stereo not given) [KETAMINE], the Activity entry in data set [1] was “is not a substrate [-]”; in [16], “is not an inhibitor [-]”.
On to `CNCCCC12CCC(c3ccccc31)c1ccccc12` [MAPROTILINE], for which the inhibition at 100 µM in data set [17] was 36.7%. For the same molecule, in data set [1], the Activity result was “is not a substrate [-]”.
Regarding `CCCC(C)(COC(N)=O)COC(N)=O` [MEPROBAMATE], the values for the Activity result in [18] and in data set [1] were “is not an inhibitor [-]” and “is not a substrate [-]”, respectively.
Take `CN1C[C@H](CNC(=O)OCc2ccccc2)C[C@@H]2c3cccc4c3c(cn4C)C[C@H]21` [METERGOLINE]: the Activity entry in data set [1] was “is not a substrate [-]”. Besides, in data set [19], the inhibition at 100 µM was 84.4%.
Take `Cc1ncc2n1-c1ccc(Cl)cc1C(c1ccccc1F)=NC2` [MIDAZOLAM]: the Activity result in data set [1] was “is not a substrate [-]”.
Still for that read-out and setting: for `C=CCN1CC[C@]23c4c5ccc(O)c4O[C@H]2C(=O)CC[C@@]3(O)[C@H]1C5` [NALOXONE] the value was “is not a substrate [-]”.
On to `O=C1CC[C@@]2(O)[C@H]3Cc4ccc(O)c5c4[C@@]2(CCN3CC2CC2)[C@H]1O5` [NALTREXONE], for which the Activity result was “is not a substrate [-]” in data set [1] and “is not an inhibitor [-]” in data set [20].
As to `O=C1CN=C(c2ccccc2)c2cc([N+](=O)[O-])ccc2N1` [NITRAZEPAM], the Activity entry in data set [1] was “is not a substrate [-]”; in data set [21] it was “is not an inhibitor [-]”.
Take `O=C1CN=C(c2ccccc2)c2cc(Cl)ccc2N1` [NORDAZEPAM]: the Activity result is “is not a substrate [-]” in data set [1] and “is not an inhibitor [-]” in data set [22].
For the molecule `C#CCN(C)[C@H](C)Cc1ccccc1` [SELEGILINE], the Activity result in [1] is “is not a substrate [-]”; in data set [23], “is not an inhibitor [-]”.
For the molecule `Nc1c2c(nc3ccccc13)CCCC2` [TACRINE], the Activity entry in [1] is “is not a substrate [-]”.
Take `CN(C)C/C=C(/c1ccc(Br)cc1)c1cccnc1` [ZIMELDINE]: the Activity entry in data set [1] is “is not a substrate [-]”; in data set [24], “is not an inhibitor [-]”.
